Measurements as given in article PMC12670160, “A drug-repurposing screen of FDA- and EMA-approved drugs identifies two NF-κB inhibitors active against eumycetoma” (Journal of Antimicrobial Chemotherapy, 2025).
Converted amounts (≈) assume the structure as drawn. Like-named read-outs stand apart in the source and are kept apart here.

Legend:
[1] = system: M. mycetomatis strain mm55; assay: IC50 and MIC determination, CellTiter-Glo, strain mm55; assay type: cell-based, Madurella mycetomatis; settings: for IC50: concentration inhibiting 50% of fungal hyphae growth; for MIC: concentration with complete growth inhibition
M. mycetomatis strain I1 = assay: IC50 and MIC determination, CellTiter-Glo, strain I1; assay type: cell-based, Madurella mycetomatis
[2] = system: M. mycetomatis-infected G. mellonella larvae; settings: cited from earlier work
M. mycetomatis strain P1 = assay: IC50 and MIC determination, CellTiter-Glo, strain P1; assay type: cell-based, Madurella mycetomatis
M. mycetomatis [3] = assay: In vitro susceptibility, averages over M. mycetomatis isolates (average metabolic activity at 2 µM, mean MIC); assay type: cell-based; settings: Madurella mycetomatis, 96 h, 4 days at 37°C, CellTiter-Glo, average of 3 isolates, 20% or below = inhibition
Protocol: M. mycetomatis isolate MM55 was used to screen the Oncode library. This strain was kindly provided by Prof. […] The three M. mycetomatis isolates were identified by ITS sequencing and maintained at −80°C at Erasmus MC. Prior to in vitro screening, isolates were cultured on Sabouraud agar plates (BD, Erembodegem, Belgium) at 37°C.
The Oncode Drug Repurposing library was based on the drug repurposing library from the Drug Repurposing Hub of the Broad Institute and recreated by the Oncode institute.[13] […] Each well of the 384-well plates contained 0.6 µL of a 200 µM stock concentration of compound, resulting in a final concentration of 2 µM when the fungus was added. […] Furthermore, this concentration could also be reached in the G. mellonella larvae.[8],[11] The prepared 384-well plates were transferred on dry ice to the Erasmus MC and stored at −80°C until they were screened.
Each plate also contained a growth control (60 µL of M. mycetomatis hyphal suspension, plus 0.6 µL of DMSO) and a negative control (60 µL of culture medium, plus 0.6 µL of DMSO). Plates were then incubated for 4 days at 37°C, after which 30 µL of CellTiter-Glo 3D Cell Viability reagent was added to every well.[19] After 25 min of incubation at room temperature, the luminescence was measured with a CytoFluor Series 4000 luminometer (PerSeptive Biosystems, Framingham, MA, USA). To determine the metabolic activity, the following formula was used:
(§1) Percentagemetabolicactivity=(Absorbancetestluminensence−AbsorbanceNCluminensence/AbsorbanceGCluminensence−AbsorbanceNCluminensence)×100
(§2) where, GC is growth control and NC is negative control. The luminescence measured for the GC is considered as 100% metabolic activity. The luminescence for the NC is considered as 0% metabolic activity.

M. mycetomatis [4] = system: M. mycetomatis; set-up: method as in PMID 35398930, PMID 15793113, PMID 36005544, PMID 34181477, PMID 22964246; settings: against M. mycetomatis; cited from earlier work
M. mycetomatis [5] = assay: In vitro susceptibility, averages over M. mycetomatis isolates (average metabolic activity at 2 µM, mean MIC); assay type: cell-based, Madurella mycetomatis; settings: for MIC: Madurella mycetomatis, mean/average over strains MM55, P1 and I1
[6] = system: M. mycetomatis MM55-infected G. mellonella larvae; assay: Therapeutic efficacy in M. mycetomatis-infected G. mellonella larvae (survival, log-rank); assay type: in vivo, Galleria mellonella; settings: 20 µL of 10 µM at 4, 28 and 52 h post infection; 10 days
Protocol: (§3) For in vivo experiments, sixth-week instar G. mellonella larvae were purchased from Blue-Lagoon, Maassluis, The Netherlands. The larvae were raised and kept in the dark at room temperature. Larvae without any discoloration and weighing around 500 mg were selected for experiments.
The wet weight was determined and 10 mL of PBS per gram of mycelia was added. The suspension was then sonicated for 2 min to achieve a particle size of 10 µm. The fungal suspension (4 mg/40 µL) was injected into the last left pro-leg of a healthy G. mellonella larva with an insulin 29G U-100 needle to reach a final inoculum of 4 mg/larva. Larvae were placed in Petri dishes containing Whatman paper in a 37°C incubator.
A control group was also included in which M. mycetomatis-infected larvae were treated with PBS or with 1 mg/kg amphotericin B (Fungizone, Bristol Myers Squibb, Utrecht, The Netherlands). […] The treatment was repeated at 28 h post infection and 52 h post infection via different prolegs. The infection was monitored for 10 days.
To compare the survival rates between PBS treatment control and the different experimental groups a log-rank test was performed. All data were processed and performed in GraphPad Prism 10.

[7] = system: healthy uninfected G. mellonella larvae; settings: 20 µL of 20 µM injected; 10 day observation; toxic if more than 20% of larvae died
Protocol: as §3
To determine the toxicity, 15 healthy uninfected larvae were injected with 20 µL of 20 µM compound as previously described.[16] […] As a control, a separate group of larvae were injected with 20 µL of PBS. Larvae were housed in Petri dishes with Whatman paper at 37°C in the dark. Survival was monitored for 10 days.

eumycetoma = settings: first 6 months of treatment, cited from earlier work
[8] = system: M. mycetomatis isolate MM55; assay: Oncode library screen at 2 µM, CLSI-based in vitro susceptibility assay with CellTiter-Glo (metabolic activity); assay type: cell-based, Madurella mycetomatis; settings: primary screen, strain MM55, 20% or below = inhibition
Protocol: M. mycetomatis isolate MM55 was used to screen the Oncode library. This strain was kindly provided by Prof. A. Fahal of the Mycetoma Research Centre in 1999. The most promising hit compounds were also screened against M. mycetomatis isolates P1 and I1, which originated from Mali and India, respectively.[17] The three M. mycetomatis isolates were identified by ITS sequencing and maintained at −80°C at Erasmus MC. Prior to in vitro screening, isolates were cultured on Sabouraud agar plates (BD, Erembodegem, Belgium) at 37°C.
The Oncode Drug Repurposing library was based on the drug repurposing library from the Drug Repurposing Hub of the Broad Institute and recreated by the Oncode institute.[13] The library contained 5631 drugs.[18] A copy of this library was plated out on 384-well plates with lids (cat no. 655180; Greiner Bio-One, Alphen aan den Rijn, The Netherlands) by the Leiden University Medical Center. Each well of the 384-well plates contained 0.6 µL of a 200 µM stock concentration of compound, resulting in a final concentration of 2 µM when the fungus was added. From the previous libraries we screened, we noted that there are several compounds able to inhibit M. mycetomatis at this concentration in vitro. Furthermore, this concentration could also be reached in the G. mellonella larvae.[8],[11] The prepared 384-well plates were transferred on dry ice to the Erasmus MC and stored at −80°C until they were screened. We created a second library from the original library, containing only those 29 compounds that were active in the first screen.
. Each plate also contained a growth control (60 µL of M. mycetomatis hyphal suspension, plus 0.6 µL of DMSO) and a negative control (60 µL of culture medium, plus 0.6 µL of DMSO). Plates were then incubated for 4 days at 37°C, after which 30 µL of CellTiter-Glo 3D Cell Viability reagent was added to every well.[19] After 25 min of incubation at room temperature, the luminescence was measured with a CytoFluor Series 4000 luminometer (PerSeptive Biosystems, Framingham, MA, USA). To determine the metabolic activity, the following formula was used:
as §1, §2

[9] = M. mycetomatis-infected G. mellonella larvae
[10] = only at concentrations higher than used in human patients

Compound | IC50 ([1]; Madurella mycetomatis) [µM] | MIC ([1]; Madurella mycetomatis) [µM] | IC50 (M. mycetomatis strain I1; Madurella mycetomatis, I1) [µM] | MIC (M. mycetomatis strain I1; Madurella mycetomatis, I1) [µM] | IC50 (M. mycetomatis strain P1; Madurella mycetomatis, P1) [µM] | MIC (M. mycetomatis strain P1; Madurella mycetomatis, P1) [µM] | activity at 2 µM (M. mycetomatis [3]) [%] | MIC50 (M. mycetomatis [4]) [mg/L] | Madurella mycetomatis metabolic activity at 2µM (%) [8] [%] | also measured
CC(=O)N1CCN(c2ccc(OCC3COC(Cn4ccnc4)(c4ccc(Cl)cc4Cl)O3)cc2)CC1 (stereo not shown) [Ketoconazole] | 0.66 | 1 (≈ 0.531 µg/mL) | 0.05 | 0.06 (≈ 0.0319 µg/mL) | 0.17 | 0.25 (≈ 0.133 µg/mL) | 0.9 | – | – | larval survival [2, 9]: No prolonged larval survival
N#C/C(=C1/SCC(c2ccccc2Cl)S1)n1ccnc1 (stereo not shown) [Lanoconazole] | 0.04 | 0.06 (≈ 0.0192 µg/mL) | < 0.03 | 0.03 (≈ 0.0096 µg/mL) | < 0.03 | 0.03 (≈ 0.0096 µg/mL) | 3 | 0.002 (≈ 0.00625 µM) | – | MIC (M. mycetomatis [5]): < 0.03 µM
N#C/C(=C1/SC[C@@H](c2ccc(Cl)cc2Cl)S1)n1ccnc1 [Luliconazole] | < 0.03 | 0.03 (≈ 0.0106 µg/mL) | < 0.03 | 0.03 (≈ 0.0106 µg/mL) | < 0.03 | 0.03 (≈ 0.0106 µg/mL) | 1 | 0.001 (≈ 0.00282 µM) | – | MIC (M. mycetomatis [5]): < 0.03 µM
CC[C@@H]([C@H](C)O)n1ncn(-c2ccc(N3CCN(c4ccc(OC[C@@H]5CO[C@@](Cn6cncn6)(c6ccc(F)cc6F)C5)cc4)CC3)cc2)c1=O [Posaconazole] | 0.13 | 0.25 (≈ 0.175 µg/mL) | < 0.03 | 0.03 (≈ 0.021 µg/mL) | < 0.03 | 0.03 (≈ 0.021 µg/mL) | 1.9 | 0.03 (≈ 0.0428 µM) | – | larval survival [2, 10]: Prolonged survival; MIC (M. mycetomatis [5]): < 0.03 µM
C[C@@H](c1nc(-c2ccc(C#N)cc2)cs1)[C@](O)(Cn1cncn1)c1ccc(F)cc1F [Ravuconazole] | 0.17 | 0.25 (≈ 0.109 µg/mL) | < 0.03 | 0.03 (≈ 0.0131 µg/mL) | < 0.03 | 0.06 (≈ 0.0262 µg/mL) | 1.3 | 0.016 (≈ 0.0366 µM) | – | larval survival [2, 10]: Prolonged survival
C[CH2][Hg][S]c1ccccc1C(=O)[O-].[Na+] [Thimerosal] | – | – | – | – | – | – | – | – | – | Survival of M. mycetomatis-infected larvae versus PBS [6]: No prolonged survival; log-rank P versus PBS treatment [6]: 0.5242; IC50 [1]: 0.08 µM; MIC [1]: 0.25 µM; IC50 (M. mycetomatis strain I1; strain I1): 0.04 µM; MIC (M. mycetomatis strain I1; strain I1): 0.06 µM; IC50 (M. mycetomatis strain P1; strain P1): < 0.03 µM; MIC (M. mycetomatis strain P1; strain P1): 0.03 µM; Toxicity in G. mellonella larvae at 20 µM [7]: toxicity was noted; Average metabolic activity at 2 µM (%) (M. mycetomatis [5]; 2 µM, 4 days at 37°C, CellTiter-Glo, average of 3 isolates, 20% or below = inhibition): 1.4%
C[C@@H](c1ncncc1F)[C@](O)(Cn1cncn1)c1ccc(F)cc1F [Voriconazole] | 0.63 | 1 (≈ 0.349 µg/mL) | 0.2 | 0.25 (≈ 0.0873 µg/mL) | 0.33 | 0.5 (≈ 0.175 µg/mL) | 1.1 | 0.125 (≈ 0.358 µM) | – | larval survival [2, 9]: No prolonged larval survival
C[C@@H](c1nc(-c2ccc(C#N)cc2)cs1)[C@@](Cn1cncn1)(OCOP(=O)(O)O)c1ccc(F)cc1F [fosravuconazole] | – | – | – | – | – | – | – | – | – | lesion size or β-glucan levels (eumycetoma; 200 mg/week): no reduction; lesion size or β-glucan levels (eumycetoma; 300 mg/week): no reduction
COC(=O)C1=C(C#N)NC(C)=C(C(=O)OC(C)C)C1c1cccc([N+](=O)[O-])c1 (stereo not shown) [nilvadipine arc029] | – | – | – | – | – | – | – | – | 85.2 | –
Cc1ccc(-c2c(-c3nn(C)c4ncnc(N5CC[C@H](N6CCCCC6)C5)c34)cnn2C)cc1 [pf4981517] | – | – | – | – | – | – | – | – | 79.1 | –
O=C(NC[C@H]1CN(c2ccc(N3CCOCC3=O)cc2)C(=O)O1)c1ccc(Cl)s1 [rivaroxaban xarelto] | – | – | – | – | – | – | – | – | 98.3 | –
CC(C)OC(=O)C1=CN(C(=O)c2ccc(F)c(F)c2)CC(C)(C)c2c1[nH]c1ccccc21 [turofexorate isopropyl xl335] | – | – | – | – | – | – | – | – | 92.4 | –
